The target of one assay is T1, SIRT3 (Homo sapiens, UniProt Q9NTG7).
T1 construct: purchased Enzo Life Sciences BML-AK557-0001
T1 sequence (Q9NTG7 1-399): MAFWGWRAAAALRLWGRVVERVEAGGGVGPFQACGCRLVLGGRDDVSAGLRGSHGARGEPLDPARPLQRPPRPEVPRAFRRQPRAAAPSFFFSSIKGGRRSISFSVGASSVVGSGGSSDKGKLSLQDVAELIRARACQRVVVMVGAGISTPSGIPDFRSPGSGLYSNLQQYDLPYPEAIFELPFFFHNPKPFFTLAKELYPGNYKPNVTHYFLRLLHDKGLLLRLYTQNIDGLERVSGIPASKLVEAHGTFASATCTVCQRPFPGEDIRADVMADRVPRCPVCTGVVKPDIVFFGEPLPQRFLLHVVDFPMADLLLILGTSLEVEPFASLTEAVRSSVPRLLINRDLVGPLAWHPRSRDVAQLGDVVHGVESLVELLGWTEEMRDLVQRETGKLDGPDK
Put plainly: Fluor de Lys (FDL) fluorimetric SIRT3 deacetylase activity assay. The class given is biochemical. To be noted: 100 µM, FDL deacetylation assay, compared to the control group, mean ± SD; for activity at 100 µM: 0.5 h, read-out: % effect @ 100 µM of SIRT3. How it is done:
The SIRT3 activity was assessed using the Enzo Life Sciences kit (BML-AK557-0001) per the protocol provided. A 10 μM fluoro-acetylated p53 peptide and 500 μM NAD^+ were added to SIRT3 assay buffer, incubated with test compounds and 0.5 μg recombinant SIRT3 at 37 °C for 30 min. In the mass spectrometry (MS) assay, 5 μM hSirt3 was reacted with 0.25 mM peptide and 1.25 mM NAD^+, with or without 10 μM SKLB-11A in 2% DMSO, at 37 °C. Controls included 2% DMSO without SKLB-11A. The reaction was halted at defined intervals using 5 mM nicotinamide, and the mixture then underwent filtration and subjected to nano LC-MS/MS analysis. Acetylated Peptide: MnSOD-K122 ([…]-Ac).

Another assay has as its system H9c2 cells. The assay can be described thus: Dox-induced cardiotoxicity model in H9c2 cells, MTT cell viability. The class given is cell-based. To be noted: for viability at 10 µM: Rattus norvegicus, H9c2, 10 µM pretreatment 24 h, then 1 µM Dox 24 h, MTT, Model (Dox) = Dox alone, read-out: Cardiomyocyte survival rate at 10 uM (%). How it is done: H9c2 cardiomyocytes were cultured in high-glucose DMEM supplemented with 10% FBS and 1% penicillin/streptomycin under a 5% CO2 atmosphere at 37 °C. Cells were seeded at 5 × 10^4 cells/mL in 96-well plates and treated with 1 μM Dox for 24 h. After Dox treatment, cell viability was quantified via MTT assay; 3-(4,5-dimethythiazol-2-yl)-2,5-diphenyltetrazolium bromide (MTT, 5 mg/mL) was applied for 4 h, followed by DMSO dissolution of formazan crystals. Additionally, cells were pretreated with 10 μM SKLB-11A for 24 h prior to 1 μM Dox exposure, and viability was similarly assessed using MTT.

Results on 26 compounds are retold here after PMC12123458, “Unraveling Small Molecule-Mediated Sirtuin 3 Activation at a Distinct Binding Site for Cardioprotective Therapies” (ACS Central Science, 2025).

On to `N#Cc1c(N)n(Cc2ccc(F)cc2)c2nc3ccccc3nc12` [SKLB-4B, 2-amino-1-(4-fluorobenzyl)-1H-pyrrolo[2,3-b]quinoxaline-3-carbonitrile], for which, on SIRT3, the “% effect @ 100 µM of SIRT3” value is listed as “significant increase in SIRT3 deacetylation activity” and the activity at 100 µM was 130.6 ± 0.36%. Besides, the viability at 10 µM in the assay on H9c2 cells turned out to be 70.8 ± 3.03%.
With `COc1ccc(-n2c(N)c(C#N)c3nc4ccccc4nc32)cc1` [SKLB-4E, 2-amino-1-(4-methoxyphenyl)-1H-pyrrolo[2,3-b]quinoxaline-3-carbonitrile], the activity at 100 µM at SIRT3 came out at 110.4 ± 0.95%. Besides, the viability at 10 µM in the assay on H9c2 cells was found to be 65.9 ± 2.41%.
As for `CCOC(=O)c1c(N)n(Cc2ccc(F)cc2)c2nc3ccccc3nc12` [SKLB-11B, Ethyl 2-amino-1-(4-fluorobenzyl)-1H-pyrrolo[2,3-b]quinoxaline-3-carboxylate], on SIRT3, the “% effect @ 100 µM of SIRT3” value is “maintained or enhanced the activity” and the activity at 100 µM is 167.4 ± 1.13%. For the same compound, the viability at 10 µM with H9c2 cells came out at 77 ± 1.96%.
As for `CNC(=O)c1c(N)n(Cc2ccc(F)cc2)c2nc3ccccc3nc12` [SKLB-11J, 2-amino-1-(4-fluorobenzyl)-N-methyl-1H-pyrrolo[2,3-b]quinoxaline-3-carboxamide], the activity at 100 µM on SIRT3 came to 150 ± 1.75%. Besides, the viability at 10 µM in the assay with H9c2 cells was 72.4 ± 2.21%.
`CCCCCNC(=O)c1c(N)n(Cc2ccccc2)c2nc3ccccc3nc12` [SKLB-11N, 2-amino-1-benzyl-N-pentyl-1H-pyrrolo[2,3-b]quinoxaline-3-carboxamide]: on SIRT3, the activity at 100 µM is 119 ± 3.3%. Besides, in the assay with H9c2 cells, the viability at 10 µM was 66.3 ± 4.52%.
For `N#Cc1c(N)n(Cc2ccc(Br)cc2)c2nc3ccccc3nc12` [SKLB-4C, 2-amino-1-(4-bromobenzyl)-1H-pyrrolo[2,3-b]quinoxaline-3-carbonitrile], the activity at 100 µM on SIRT3 amounted to 126.4 ± 0.81%. The viability at 10 µM in the assay on H9c2 cells worked out at 68.25 ± 0.51%.
For `NC(=O)c1c(N)n(Cc2ccc(F)cc2)c2nc3ccccc3nc12` [SKLB-11I, 2-amino-1-(4-fluorobenzyl)-1H-pyrrolo[2,3-b]quinoxaline-3-carboxamide], in that order: 135 ± 2.43% and 70.8 ± 3.76%.
For `CC(C)(C)OC(=O)c1c(N)n(Cc2ccccc2)c2nc3ccccc3nc12` [SKLB-11F, Tert-butyl 2-amino-1-benzyl-1H-pyrrolo[2,3-b]quinoxaline-3-carboxylate], in that order: 122.7 ± 0.59% and 69 ± 1.22%.
Take `CC(C)(C)OC(=O)Nc1c(C(=O)O)c2nc3ccccc3nc2n1Cc1ccc(F)cc1` [SKLB-7A, 2-((tert-butoxycarbonyl)amino)-1-(4-fluorobenzyl)-1H-pyrrolo[2,3-b]quinoxaline-3-carboxylic acid]: on SIRT3, the “% effect @ 100 µM of SIRT3” value is recorded as “significantly reduced SIRT3 deacetylation activity” and the activity at 100 µM was found to be 109.3 ± 0.71%. Further, in the assay with H9c2 cells, the viability at 10 µM came to 66.1 ± 0.8%.
Take `CCCCCNC(=O)c1c(N)n(Cc2cccc(Cl)c2)c2nc3ccccc3nc12` [SKLB-11Q, 2-amino-1-(3-chlorobenzyl)-N-pentyl-1H-pyrrolo[2,3-b]quinoxaline-3-carboxamide]: the activity at 100 µM on SIRT3 is 118 ± 0.63%. For the same compound, in the assay with H9c2 cells, the viability at 10 µM is 66.5 ± 1.19%.
On to `CCCCCNC(=O)c1c(N)n(Cc2cccc(Br)c2)c2nc3ccccc3nc12` [SKLB-11P, 2-amino-1-(3-bromobenzyl)-N-pentyl-1H-pyrrolo[2,3-b]quinoxaline-3-carboxamide], for which the activity at 100 µM at SIRT3 came to 116.2 ± 0.57%. Moreover, the viability at 10 µM with H9c2 cells came out at 65.8 ± 4.18%.
As to `Cc1ccc(Cn2c(N)c(C(=O)OC(C)(C)C)c3nc4ccccc4nc32)cc1` [SKLB-11G, Tert-butyl 2-amino-1-(4-methylbenzyl)-1H-pyrrolo[2,3-b]quinoxaline-3-carboxylate], the activity at 100 µM on SIRT3 is 107 ± 1.42%. For the same compound, the viability at 10 µM with H9c2 cells worked out at 63.93 ± 0.62%.
On to `Nc1c(C(=O)NC2CC2)c2nc3ccccc3nc2n1Cc1ccc(F)cc1` [SKLB-11M, 2-amino-N-cyclopropyl-1-(4-fluorobenzyl)-1H-pyrrolo[2,3-b]quinoxaline-3-carboxamide], for which the activity at 100 µM on SIRT3 stood at 104 ± 1.75%. Moreover, the viability at 10 µM in the assay on H9c2 cells is 64.5 ± 0.87%.
As to `COc1ccc(Cn2c(N)c(C(=O)OC(C)(C)C)c3nc4ccccc4nc32)cc1` [SKLB-11H, Tert-butyl 2-amino-1-(4-methoxybenzyl)-1H-pyrrolo[2,3-b]quinoxaline-3-carboxylate], at SIRT3, the activity at 100 µM was 125.7 ± 0.91%. In addition, the viability at 10 µM with H9c2 cells was 68.7 ± 4.61%.
Consider `COc1cccc2c1C(=O)c1c(O)c3c(c(O)c1C2=O)C[C@@](O)(C(=O)CO)C[C@@H]3O[C@H]1C[C@H](N)[C@H](O)[C@H](C)O1` [Dox, doxorubicin, reference compound], for which the viability at 10 µM in the assay on H9c2 cells was determined as 61.93 ± 0.51%.
For the compound `COc1cc(-n2c(=S)[nH]c3ccccc3c2=O)c(Cl)cc1Cl` [Mdivi-1, reference compound], in the assay on H9c2 cells (Dox-treated H9c2 cells, cell viability), the “effect of co-treatment on the cardioprotective efficacy of SKLB-11A” value is “attenuated the cardioprotective effects of SKLB-11A”.
As for `Nc1c(C(=O)Oc2ccccc2)c2nc3ccccc3nc2n1Cc1ccc(F)cc1` [SKLB-11E, Phenyl 2-amino-1-(4-fluorobenzyl)-1H-pyrrolo[2,3-b]quinoxaline-3-carboxylate], the activity at 100 µM on SIRT3 is 130.6 ± 1.27%. For the same compound, the viability at 10 µM in the assay on H9c2 cells turned out to be 71.3 ± 4.34%.
In the case of `CC(C)(C)OC(=O)c1c(N)n(Cc2ccc(F)cc2)c2nc3ccccc3nc12` [SKLB-11D, Tert-butyl 2-amino-1-(4-fluorobenzyl)-1H-pyrrolo[2,3-b]quinoxaline-3-carboxylate], at SIRT3, the “% effect @ 100 µM of SIRT3” value was “maintained or enhanced the activity” and the activity at 100 µM turned out to be 148 ± 3.07%. In addition, in the assay with H9c2 cells, the viability at 10 µM amounted to 74.3 ± 1.7%.
Consider `CCCCCNC(=O)c1c(N)n(Cc2ccc(Br)cc2)c2nc3ccccc3nc12` [SKLB-11O, 2-amino-1-(4-bromobenzyl)-N-pentyl-1H-pyrrolo[2,3-b]quinoxaline-3-carboxamide], for which the activity at 100 µM at SIRT3 was 126 ± 1.32%. For the same compound, in the assay on H9c2 cells, the viability at 10 µM stood at 69.2 ± 1.35%.
Regarding `COc1ccc(Cn2c(N)c(C#N)c3nc4ccccc4nc32)cc1` [SKLB-4A, 2-amino-1-(4-methoxybenzyl)-1H-pyrrolo[2,3-b]quinoxaline-3-carbonitrile], the activity at 100 µM on SIRT3 was 118.2 ± 0.79%. Besides, the viability at 10 µM in the assay with H9c2 cells was 65.3 ± 4.54%.
With `N#Cc1c(N)n(-c2ccccc2F)c2nc3ccccc3nc12` [SKLB-4F, 2-amino-1-(2-fluorophenyl)-1H-pyrrolo[2,3-b]quinoxaline-3-carbonitrile], the activity at 100 µM at SIRT3 is 106 ± 1.96%. Besides, in the assay on H9c2 cells, the viability at 10 µM amounted to 65.17 ± 0.38%.
Take `CC(C)OC(=O)c1c(N)n(Cc2ccc(F)cc2)c2nc3ccccc3nc12` [SKLB-11C, Isopropyl 2-amino-1-(4-fluorobenzyl)-1H-pyrrolo[2,3-b]quinoxaline-3-carboxylate]: the activity at 100 µM at SIRT3 came to 124.2 ± 0.84%. Also, the viability at 10 µM with H9c2 cells was found to be 70.2 ± 1.89%.
Take `CCCCNC(=O)c1c(N)n(Cc2ccc(F)cc2)c2nc3ccccc3nc12` [SKLB-11L, 2-amino-N-butyl-1-(4-fluorobenzyl)-1H-pyrrolo[2,3-b]quinoxaline-3-carboxamide]: the activity at 100 µM on SIRT3 was determined as 123.6 ± 0.95%. Besides, the viability at 10 µM in the assay with H9c2 cells came to 67.1 ± 1.6%.
As for `COc1cccc(-n2c(N)c(C#N)c3nc4ccccc4nc32)c1` [SKLB-4D, 2-amino-1-(3-methoxyphenyl)-1H-pyrrolo[2,3-b]quinoxaline-3-carbonitrile], on SIRT3, the activity at 100 µM turned out to be 103.1 ± 1.02%. The viability at 10 µM in the assay with H9c2 cells is 64.4 ± 3.28%.
Turning to `Nc1c(C(=O)O)c2nc3ccccc3nc2n1Cc1ccc(F)cc1` [SKLB-5A, 2-amino-1-(4-fluorobenzyl)-1H-pyrrolo[2,3-b]quinoxaline-3-carboxylic acid], the activity at 100 µM at SIRT3 was 154 ± 2.69%. Moreover, the viability at 10 µM in the assay with H9c2 cells was 75.5 ± 2.69%.
For `CCNC(=O)c1c(N)n(Cc2ccc(F)cc2)c2nc3ccccc3nc12` [SKLB-11K, 2-amino-N-ethyl-1-(4-fluorobenzyl)-1H-pyrrolo[2,3-b]quinoxaline-3-carboxamide], the activity at 100 µM on SIRT3 was 144.3 ± 0.82%. Moreover, in the assay with H9c2 cells, the viability at 10 µM stood at 71.5 ± 2.09%.
